Data reported in patent US20240254114A1, “PREPARATION OF FUSED AZOLE DERIVATIVES AS NOVEL DIACYLGLYCERIDE 0-ACYLTRANSFERASE 2 INHIBITORS” (Merck Sharp & Dohme LLC, priority 2022, published 2024).

target: human DGAT2 (Homo sapiens (Human), UniProt Q96PD7); assay: DGAT2 Enzymatic Activity Assay; conditions: Human DGAT2 IC50, hDGAT2 membrane prep from Sf-9 cells; 13C18-triolein product by LC/MS/MS
Sequence (Q96PD7 whole entry): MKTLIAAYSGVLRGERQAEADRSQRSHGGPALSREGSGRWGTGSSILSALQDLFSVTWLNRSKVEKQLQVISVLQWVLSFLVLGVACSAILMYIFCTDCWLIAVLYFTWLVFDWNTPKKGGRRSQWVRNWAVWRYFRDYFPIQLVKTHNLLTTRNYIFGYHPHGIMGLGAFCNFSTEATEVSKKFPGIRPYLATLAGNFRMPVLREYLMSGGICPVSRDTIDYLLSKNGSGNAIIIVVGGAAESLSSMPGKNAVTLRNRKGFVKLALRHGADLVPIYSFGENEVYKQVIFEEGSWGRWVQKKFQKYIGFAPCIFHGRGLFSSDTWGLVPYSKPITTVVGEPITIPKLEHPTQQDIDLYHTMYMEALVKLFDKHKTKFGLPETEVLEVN
Protocol: Sf-9 insect cells were maintained in Grace's insect cell culture medium with 10% heated-inactivated fetal bovine serum, 1% Pluronic F-68 and 0.14 μg/ml Kanamycine sulfate at 27° C. in a shaker incubator. After infection with untagged baculovirus expressing human DGAT2 (hDGAT2) at multiplicity of infection (MOI) 3 for 48 hours, cells were harvested. Cell pellets were suspended in buffer containing 10 mM Tris-HCl pH 7.5, 1 mM EDTA, 250 mM sucrose and Complete Protease Inhibitor Cocktail (Sigma Aldrich), and sonicated on ice. Cell debris were removed by centrifugation at 2000×g for 15 minutes. Membrane fractions were isolated by ultracentrifugation (100,000×g), resuspended in the same buffer, and frozen (−80° C.) for later use. The protein concentration was determined with the Pierce™ BCA Protein Assay Kit (Thermo Fisher Scientific).
LC/MS/MS analyses were performed using Thermal Fisher's LX4-TSQ Vantage system. This system consists of an Agilent binary high-performance liquid chromatography (HPLC) pump and a TSQ Vantage triple quadrupole MS/MS instrument. For each sample, 2 μL samples from the top organic layer of in-plate liquid-liquid extraction were injected onto a Thermo Betabasic C4 column (2.1 mm×20 mm, 5 μm particle size). The samples were then eluted using the following conditions; mobile phase: Isopropanol: acetonitrile/10 mM ammonium formate=50/35/15 (v/v/v), flow rate: 0.8 mL/min, temperature: 25° C. Data was acquired in positive mode using a heated electrospray ionization (HESI) interface. […] The peak area was integrated by Xcalibur Quan software. The ratio between the ^13C18 triolein generated in the reaction and spiked in internal standard ^13C21-triolein was used to generate percentage inhibition and IC50 values. […] DGAT2 activity was determined by measuring the amount of enzymatic product ^13C18-triolein (^13C-1,2,3-Tri(cis-9-octadecenoyl)glycerol) using the membrane prep mentioned above. The assay was carried out in ABgene 384-well assay plates in a final volume of 25 μL at rt.

Row | SMILES | IC50
1 | Cn1c(C(=O)NC2(C)CCS(=O)(=O)CC2)nc2ncc(Oc3ncc(Cl)cc3OCC(F)F)nc21 [Example 90, 6-((5-Chloro-3-(2,2-difluoroethoxy)pyridin-2-yl)oxy)-1-methyl-N-(4-methyl-1,1-dioxidotetrahydro-2H-thiopyran-4-yl)-1H-imidazo[4,5-b]pyrazine-2-carboxamide] | 4.1 nM
2 | Cn1c(C(=O)NC2(C)CCS(=O)(=O)CC2)nc2ccc(Oc3ncc(Cl)cc3OCC(F)(F)F)c(Cl)c21 [Example 23, 7-Chloro-6-((5-chloro-3-(2,2,2-trifluoroethoxy)pyridin-2-yl)oxy)-1-methyl-N-(4-methyl-1,1-dioxidotetrahydro-2H-thiopyran-4-yl)-1H-benzo[d]imidazole-2-carboxamide] | 2.2 nM
3 | Cn1c(C(=O)NC2(C)CCS(=O)(=O)CC2)nc2ccc(OCC(CC(F)(F)F)OC(F)F)nc21 (single isomer, unassigned) [Example 62a, 5-[2-(difluoromethoxy)-4,4,4-trifluoro-butoxy]-3-methyl-N-(4-methyl-1,1-dioxo-thian-4-yl)imidazo[4,5-b]pyridine-2-carboxamide] | 1330 nM
4 | Cn1c(C(=O)NC2(C)CCS(=O)(=O)CC2)nc2ccc(OCC(CC(F)(F)F)OCC(F)F)nc21 (single isomer, unassigned) [Example 63a, 5-[2-(2,2-difluoroethoxy)-4,4,4-trifluoro-butoxy]-3-methyl-N-(4-methyl-1,1-dioxo-thian-4-yl)imidazo[4,5-b]pyridine-2-carboxamide] | 50 nM
5 | Cc1c(Oc2ncc(Cl)cc2OCC(F)F)ncc2nc(C(=O)NC3(C)CCS(=O)(=O)CC3)n(C)c12 [Example 78, 6-[[5-Chloro-3-(2,2-difluoroethoxy)-2-pyridyl]oxy]-1,7-dimethyl-N-(4-methyl-1,1-dioxo-thian-4-yl)imidazo[4,5-c]pyridine-2-carboxamide] | 3.9 nM
6 | Cn1c(C(=O)NC2(C)CCS(=O)(=O)CC2)nc2cc(F)c(Oc3ncc(Cl)cc3OCC(F)F)nc21 [Example 41, 5-((5-chloro-3-(2,2-difluoroethoxy)pyridin-2-yl)oxy)-6-fluoro-3-methyl-N-(4-methyl-1,1-dioxidotetrahydro-2H-thiopyran-4-yl)-3H-imidazo[4,5-b]pyridine-2-carboxamide] | 1.5 nM

Next, values leading:

Row | IC50 | SMILES
7 | 15 nM | CC1(NC(=O)c2nc3ccc(Oc4ncc(Cl)cc4OCC(F)F)nc3[nH]2)CCS(=O)(=O)CC1 [Example 50, 5-((5-chloro-3-(2,2-difluoroethoxy)pyridin-2-yl)oxy)-N-(4-methyl-1,1-dioxidotetrahydro-2H-thiopyran-4-yl)-3H-imidazo[4,5-b]pyridine-2-carboxamide]
8 | 694 nM | Cn1c(C(=O)NC2(C)CCS(=O)(=O)CC2)nc2cc(Oc3ncccc3OCC(F)(F)F)ccc21 [Example 12, 1-Methyl-N-(4-methyl-1,1-dioxidotetrahydro-2H-thiopyran-4-yl)-5-((3-(2,2,2-trifluoroethoxy)pyridin-2-yl)oxy)-1H-benzo[d]imidazole-2-carboxamide]

same assay, conditions: read-out: Human DGAT2 IC50; hDGAT2 membrane prep from Sf-9 cells; 13C18-triolein product by LC/MS/MS

Row | SMILES | IC50
9 | Cn1c(C(=O)NC2(C)CCS(=O)(=O)CC2)nc2ccc(Oc3ncc(F)cc3OCC(C)(F)F)nc21 [Example 32, 5-[[3-(2,2-difluoropropoxy)-5-fluoro-2-pyridyl]oxy]-3-methyl-N-(4-methyl-1,1-dioxo-thian-4-yl)imidazo[4,5-b]pyridine-2-carboxamide] | 236 nM
10 | Cc1c(Oc2ncc(F)cc2OCC(F)(F)F)ncc2nc(C(=O)NC3(C)CCS(=O)(=O)CC3)n(C)c12 [Example 79, 6-[[5-fluoro-3-(2,2,2-trifluoroethoxy)-2-pyridyl]oxy]-1,7-dimethyl-N-(4-methyl-1,1-dioxo-thian-4-yl)imidazo[4,5-c]pyridine-2-carboxamide] | 58 nM
11 | Cn1c(C(=O)NC2(C)CCS(=O)(=O)CC2)nc2cc(F)c(Oc3ncc(F)cc3OCC(C)(F)F)nc21 [Example 43, 5-[[3-(2,2-difluoropropoxy)-5-fluoro-2-pyridyl]oxy]-6-fluoro-3-methyl-N-(4-methyl-1,1-dioxo-thian-4-yl)imidazo[4,5-b]pyridine-2-carboxamide] | 34 nM
12 | Cc1nc2nc(C(=O)NC3(C)CCS(=O)(=O)CC3)n(C)c2cc1Oc1ncc(F)cc1OCC(F)(F)F [Example 87, 6-[[5-fluoro-3-(2,2,2-trifluoroethoxy)-2-pyridyl]oxy]-1,5-dimethyl-N-(4-methyl-1,1-dioxo-thian-4-yl)imidazo[4,5-b]pyridine-2-carboxamide] | 25 nM
13 | Cn1c(C(=O)NC2(C)CCS(=O)(=O)CC2)nc2cc(F)c(Oc3ncc(F)cc3OCC(F)(F)F)nc21 [Example 42, 6-fluoro-5-((5-fluoro-3-(2,2,2-trifluoroethoxy)pyridin-2-yl)oxy)-3-methyl-N-(4-methyl-1,1-dioxidotetrahydro-2H-thiopyran-4-yl)-3H-imidazo[4,5-b]pyridine-2-carboxamide] | 2.2 nM
14 | Cc1c(Oc2ncc(F)cc2OCC(F)(F)F)cnc2nc(C(=O)NC3(C)CCS(=O)(=O)CC3)n(C)c12 [Example 85, 6-[[5-fluoro-3-(2,2,2-trifluoroethoxy)-2-pyridyl]oxy]-1,7-dimethyl-N-(4-methyl-1,1-dioxo-thian-4-yl)imidazo[4,5-b]pyridine-2-carboxamide] | 175 nM
15 | Cn1c(C(=O)NC2(C)CCS(=O)(=O)CC2)nc2cnc(Oc3ncc(F)cc3OCC(F)(F)F)cc21 [Example 68, 6-[[5-fluoro-3-(2,2,2-trifluoroethoxy)-2-pyridyl]oxy]-1-methyl-N-(4-methyl-1,1-dioxo-thian-4-yl)imidazo[4,5-c]pyridine-2-carboxamide] | 27 nM

Further lines, results first:

Row | IC50 | SMILES
16 | 8.9 nM | CCn1c(C(=O)NC2(C)CCS(=O)(=O)CC2)nc2ccc(Oc3ncc(Cl)cc3OCC(F)F)nc21 [Example 55, 5-((5-chloro-3-(2,2-difluoroethoxy)pyridin-2-yl)oxy)-3-ethyl-N-(4-methyl-1,1-dioxidotetrahydro-2H-thiopyran-4-yl)-3H-imidazo[4,5-b]pyridine-2-carboxamide]
17 | 10 nM | CC1(NC(=O)c2nc3ccc(Oc4ncc(Cl)cc4OCC(F)F)nc3s2)CS(=O)(=O)C1 [Example 95]
18 | 6.3 nM | Cc1cc2nc(C(=O)NC3(C)CCS(=O)(=O)CC3)n(C)c2nc1Oc1ncc(F)cc1OCC(F)(F)F [Example 46, 5-((5-fluoro-3-(2,2,2-trifluoroethoxy)pyridin-2-yl)oxy)-3,6-dimethyl-N-(4-methyl-1,1-dioxido-tetrahydro-2H-thiopyran-4-yl)-3H-imidazo[4,5-b]pyridine-2-carboxamide]
19 | 1810 nM | O=C(N[C@H]1CCOC1)c1nc2ccc(Oc3ncc(Cl)cc3OCC(F)(F)F)cc2o1 [Example 5, 6-[[5-chloro-3-(2,2,2-trifluoroethoxy)-2-pyridyl]oxy]-N-[(3S)-tetrahydrofuran-3-yl]-1,3-benzoxazole-2-carboxamide]
20 | 63 nM | CC1(NC(=O)c2nc3ccc(Oc4ncc(Cl)cc4OCC(F)(F)F)cc3o2)CCS(=O)(=O)CC1 [Example 3, 6-[[5-chloro-3-(2,2,2-trifluoroethoxy)-2-pyridyl]oxy]-N-(4-methyl-1,1-dioxo-thian-4-yl)-1,3-benzoxazole-2-carboxamide]
21 | 9.1 nM | Cc1cnc(Oc2cc3c(cn2)nc(C(=O)NC2(C)CCS(=O)(=O)CC2)n3C)c(OCC(F)F)c1 [Example 73, 6-[[3-(2,2-difluoroethoxy)-5-methyl-2-pyridyl]oxy]-1-methyl-N-(4-methyl-1,1-dioxo-thian-4-yl)imidazo[4,5-c]pyridine-2-carboxamide]
